{"source": "patent US20240189278A1", "about": "“NOVEL COMPOUNDS AND METHODS FOR INCREASING KLOTHO GENE EXPRESSION” (Klotho Therapeutics, Inc., priority 2017, published 2024)", "format_in_all_cases": "in vivo, mouse", "key": {"AMPK": {"system": "AMPK", "test": "Western blot of AMPK and p-AMPK, aortas of aged mice", "method": "(§1) Animal study protocols. This example was performed according to the guide lines of the National Institute of Health on the care and use of laboratory animals and approved by the institutional Animal Care and Use Committee of University of Oklahoma Health Science Center. AU mice were housed in cages at room temperature (2S±PC) and were provided with Purina laboratory chow No 5001) and tap Water and lithium. 6 adult mice (12 months) and 20 old mice (24-26 months) mice were next in this study. The old (aged) mice were randomly divided into three subgroups and each group had 6 or 7 mice. One subgroup received compound H (10 mg/kg/day1, IP, Enamine LLC, Monmouth Jct., NJ) and one group received an equal volume of DMSO (dimethyl sulfoxide, 5%) and served as a control. The third group received no treatment Blood pressure was measured before and after treatment with the active agent at 1 week and 2 week. Pulse wave velocity (PWV) was measured after 2 weeks treatment with active agent all animals were sacrificed and perfused transcardially with PBS under deep anesthesia (ketamine xylazine, 90/10 mg, IP). The aortas were then quickly removed, washed and cut into pieces for subsequent analyses.\n(§2) Western Blot Analysis: Protein samples from the thoracic aorta were prepared in Lysis buffer as described previously. The proteins ([…] were resolved by SOS-PAGE and transferred to a nitrocellulose membrane (Bio-Rad). The membrane was then incubated overnight (4° C.) with a primary antibody against collagen-1-elastin. M1′v1P2; MMP9, ALP (Abeam1 1:1000), TGF-1, TGF˜N3 (Santa Cmz, 1:100). RUX2, or aNTulmliu (Cell Signaling. 1:1000). Goat autimouse or goat anti rabbit horseradish peroxidase (1:2000 . . . 1:5,000; Santa Cruz Biotechnology) was used as a secondary antibody find incubated for 1 hour at room temperature. Specific proteins were detected by chemiluminescent methods using Amersham™ western blotting detection reagents (GE Healthcare, UK). Protein abundance on western blots was quantified densitometry using Image lab software (Bio-Rad, Hercules, CA)."}, "eNOS": {"system": "eNOS", "test": "Western blot of eNOS and p-eNOS, aortas of aged mice", "method": "as §1, §2"}, "MMP9": {"system": "MMP9", "test": "MMP9 activity by zymogram PAGE, aortas of aged mice", "details": "zymography", "method": "as §1, with “The aortas were then quickly removed, washed and cut into pieces for subsequent analyses.” left out\nMeasurements for MMP2 and MMP9 Activity. MMP2 and MMP9 activity were measured by Zymogram PAGE (Bio˜-Rad). Briefly Lysates from thoracic aorta were quantified using BCA assay (Pierce) and prepared under non-reducing, non-denaturing conditions. […]"}}, "data": [{"smiles": "O=C(Nc1ccccc1Cl)c1c[nH]c2ccccc12", "note": "[active agent, N-(2-chlorophenyl)-Ul-indde-3-carboxamide]", "values": [{"measurement": "AMPK activity", "setting": "AMPK; aortas of aged mice", "value": "increased"}, {"measurement": "AMPK expression", "setting": "AMPK; old mice, western blot", "value": "increased"}, {"measurement": "p-AMPK expression", "setting": "AMPK; old mice, western blot", "value": "increased"}, {"measurement": "eNOS activity", "setting": "eNOS; aortas of aged mice", "value": "increased"}, {"measurement": "eNOS expression", "setting": "eNOS; old mice, western blot", "value": "increased"}, {"measurement": "p-eNOS expression", "setting": "eNOS; old mice, western blot", "value": "increased"}, {"measurement": "MMP9 activity", "setting": "MMP9", "value": "decreased"}]}]}
